In ChEMBL document CHEMBL5154868, “Novel Selective Galectin-3 Antagonists Are Cytotoxic to Acute Lymphoblastic Leukemia” (J Med Chem, 2022):

What was measured:
Galectin-1 = Galectin-1 (Homo sapiens, UniProt P09382); assay: Binding affinity to human galectin-1 using 3,3'-dideoxy-3-[4-(fluorescein-5-yl-carbonylaminomethyl)-1H-1,2,3-triazol-1-y1]-3'.(3,5-dimethoxy-benzamido)-1,1'-sulfanediyl-di-beta-D-galactopyranoside as fluorescent probe by fluorescence polarization analysis
Galectin-4 [1] = target: T1, Galectin-4 (Homo sapiens, UniProt P56470)
T1 sequence (P56470 whole entry): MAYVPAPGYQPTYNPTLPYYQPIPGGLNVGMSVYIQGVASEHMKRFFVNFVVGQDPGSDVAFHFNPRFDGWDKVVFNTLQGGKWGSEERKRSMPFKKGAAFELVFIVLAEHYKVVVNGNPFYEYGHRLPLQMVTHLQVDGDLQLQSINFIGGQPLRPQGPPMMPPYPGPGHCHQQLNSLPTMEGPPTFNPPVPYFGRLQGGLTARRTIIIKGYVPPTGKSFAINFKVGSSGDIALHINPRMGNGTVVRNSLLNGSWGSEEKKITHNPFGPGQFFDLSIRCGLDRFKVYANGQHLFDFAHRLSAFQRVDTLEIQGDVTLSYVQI

Galectin-4 [2] = target: T1, Galectin-4; assay: Binding affinity to human galectin-4N expressed in Escherichia coli BL21 using 3,3'-dideoxy-3-[4-(fluorescein-5-yl-carbonylaminomethyl)-1H-1,2,3-triazol-1-y1]-3'-(3,5-dimethoxy-benzamido)-1,1'-sulfanediyl-di-beta-D-galactopyranoside as fluorescent probe by fluorescence polarization analysis
[3] = Cytotoxicity against human US7 patient-derived BCP-ALL cells co-cultured with irradiated OP9 stromal cells assessed as reduction in cell viability incubated for 24 hrs by Alamar blue assay; format: functional, cell-based; settings: US7, light or radiation study
Galectin-8 [4] = target: T2, Galectin-8 (Homo sapiens, UniProt O00214); assay: Binding affinity to human galectin-8C expressed in Escherichia coli BL21(DE3) using 3,3'-dideoxy-3-[4-(fluorescein-5-yl-carbonylaminomethyl)-1H-1,2,3-triazol-1-y1]-3'-(3,5-dimethoxy-benzamido)-1,1'-sulfanediyl-di-beta-D-galactopyranoside as fluorescent probe by fluorescence polarization analysis
T2 sequence (O00214 whole entry): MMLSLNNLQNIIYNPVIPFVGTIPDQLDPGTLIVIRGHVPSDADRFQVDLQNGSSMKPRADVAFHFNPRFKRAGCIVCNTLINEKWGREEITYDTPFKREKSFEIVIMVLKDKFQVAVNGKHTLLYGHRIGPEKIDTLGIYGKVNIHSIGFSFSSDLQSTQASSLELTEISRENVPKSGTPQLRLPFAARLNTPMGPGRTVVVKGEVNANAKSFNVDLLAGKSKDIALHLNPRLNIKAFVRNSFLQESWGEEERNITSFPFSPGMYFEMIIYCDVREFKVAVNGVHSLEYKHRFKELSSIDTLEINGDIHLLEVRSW

[5] = target: T3, Galectin-8 (Homo sapiens) (UniProt O00214); assay: Antagonist activity against human galectin-8N assessed as inhibition of galectin-8N at 2 mM by fluorescence polarization analysis relative to control
T3 sequence (whole entry): T2 sequence (O00214 whole entry)

LAX40 [6] = assay: Cytotoxicity against human LAX40 patient-derived BCP-ALL cells co-cultured with irradiated OP9 stromal cells assessed as reduction in cell viability at 100 uM for 1 to 3 days by trypan blue staining based assay; format: functional; settings: time 1-3 day, TDE = time-dependent effect
LAX40 [7] = assay: Cytostatic activity against human LAX40 patient-derived BCP-ALL cells co-cultured with irradiated OP9 stromal cells assessed as reduction in cell viability at 100 uM for 1 to 3 days by trypan blue staining based assay; format: functional; settings: time 1-3 day, TDE = time-dependent effect
Galectin-3 = Galectin-3 (Homo sapiens, UniProt P17931)
Description: Binding affinity to human galectin-3 using 2-(fluorescein-5/6-yl-carbonylamino)-ethyl 2-acetamido-2-deoxy-alpha-D-galactopyranosyl-(1-3)-[alpha-L-fucopyranosyl-(1-2)]-beta-D-galactopyranosyl-(1-4)-beta-D-glucopyranoside by fluorescence polarization analysis

Galectin-8 [8] = target: T2, Galectin-8; assay: Binding affinity to human galectin-8N using 3,3'-dideoxy-3-[4-(fluorescein-5-yl-carbonylaminomethyl)-1H-1,2,3-triazol-1-y1]-3'.(3,5-dimethoxy-benzamido)-1,1'-sulfanediyl-di-beta-D-galactopyranoside as fluorescent probe by fluorescence polarization analysis
[9] = target: T4, Galectin-4 (Homo sapiens) (UniProt P56470); assay: Antagonist activity against human galectin-4N expressed in Escherichia coli BL21 assessed as inhibition of galectin-4N at 2 mM using 3,3'-dideoxy-3-[4-(fluorescein-5-yl-carbonylaminomethyl)-1H-1,2,3-triazol-1-y1]-3'-(3,5-dimethoxy-benzamido)-1,1'-sulfanediyl-di-beta-D-galactopyranoside as fluorescent probe by fluorescence polarization analysis relative to control
T4 sequence (whole entry): T1 sequence (P56470 whole entry)

TXL2 = assay: Induction of cell death in human TXL2 patient-derived BCP-ALL cells assessed as reduction in viable cells at 0.5 to 800 uM incubated for 24 hrs by Alamar blue assay; format: functional, cell-based; settings: dose 0.5-800 µM, DDE = dose-dependent effect
US7 = assay: Induction of cell death in human US7 patient-derived BCP-ALL cells assessed as reduction in viable cells at 0.5 to 800 uM incubated for 24 hrs by Alamar blue assay; format: functional, cell-based; settings: dose 0.5-800 µM, DDE = dose-dependent effect
[10] = Binding affinity to human galectin-1 C3S mutant by fluorescence polarization analysis
[11] = Cytotoxicity against mouse bone marrow-derived stromal OP9 cells assessed as live cells at 100 uM measured after 3 days by trypan blue staining based assay relative to control; format: toxicity, cell-based; settings: time 3 day, read-out: Activity

Chain of Galectin-1 (P09382 whole entry): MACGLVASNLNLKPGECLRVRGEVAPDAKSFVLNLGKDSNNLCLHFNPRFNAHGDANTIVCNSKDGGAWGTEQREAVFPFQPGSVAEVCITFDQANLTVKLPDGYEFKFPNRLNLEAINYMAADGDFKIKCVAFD
Chain of Galectin-3 (P17931 whole entry): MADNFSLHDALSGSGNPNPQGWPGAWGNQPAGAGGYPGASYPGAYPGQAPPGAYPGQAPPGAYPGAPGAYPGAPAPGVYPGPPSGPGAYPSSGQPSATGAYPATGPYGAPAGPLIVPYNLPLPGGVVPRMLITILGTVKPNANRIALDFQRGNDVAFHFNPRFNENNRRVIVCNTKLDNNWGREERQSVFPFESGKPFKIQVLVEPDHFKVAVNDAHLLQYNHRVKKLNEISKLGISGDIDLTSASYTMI

SMILES | Kd (Galectin-1) [µM] | Kd (Galectin-4 [1]) [µM] | Kd (Galectin-4 [2]) [µM] | IC50 [3] [µM] | Kd (Galectin-8 [4]) [µM] | inhibition [5] [%] | Activity (LAX40 [6]) | Activity (LAX40 [7]) | Kd (Galectin-3) [µM] | Kd (Galectin-8 [8]) [µM] | inhibition [9] [%] | Activity (TXL2) | Activity (US7) | Kd [10] [µM] | viability at 72 h, 100 µM [11] [%]
CO[C@@H]1O[C@H](CO)[C@H](O)[C@H](OC(=O)c2ccc(C)cc2)[C@@H]1OC(=O)c1ccc(C(F)(F)F)cc1[N+](=O)[O-] | 4000 | 40 | 1400 | 83 | 1900 | < 20 | Tde | Tde | – | – | – | – | – | – | –
CO[C@@H]1O[C@H](CO)[C@H](O)[C@H](OC(=O)c2ccc(C)cc2)[C@@H]1OC(=O)c1cccc([N+](=O)[O-])c1 | 2700 | 630 | 1400 | 138 | 4000 | < 20 | – | – | 130 | – | – | – | – | – | –
CO[C@@H]1O[C@H](CO)[C@H](O)[C@H](OC(=O)c2ccc(C)cc2)[C@@H]1OC(=O)c1ccc(Cl)cc1[N+](=O)[O-] | 1400 | 18 | 250 | 128 | 450 | – | – | – | – | 4000 | – | – | – | – | –
CO[C@@H]1O[C@H](CO)[C@H](O)[C@H](OC(=O)c2ccc(C)cc2)[C@@H]1OC(C)=O | 4100 | 2900 | – | – | – | < 20 | – | – | 420 | – | < 20 | – | – | – | –
CO[C@@H]1O[C@H](CO)[C@H](O)[C@H](OC(=O)c2ccc(C)cc2)[C@@H]1OC(=O)c1ccc(F)cc1[N+](=O)[O-] | 2100 | 6.5 | 710 | 150 | 900 | < 20 | – | – | – | – | – | – | – | – | –
CO[C@@H]1O[C@H](CO)[C@H](O)[C@H](OC(=O)c2ccc(C)cc2)[C@@H]1OC(=O)c1ccccc1[N+](=O)[O-] | – | 48 | 440 | 307 | – | < 20 | Tde | Tde | – | – | – | Dde | Dde | 1800 | ≥ 65
